Test [1] deals with T1, TYK2 JH2 (Homo sapiens, UniProt P29597).
T1 construct: purchased DiscoverX (KINOMEscan KdELECT service); host or cells: E. coli BL21-derived (T7 phage display) or HEK-293
Put plainly: TYK2 JH2 binding assay (KINOMEscan KdELECT competitive binding). As to conditions: TYK2 JH2 domain, KINOMEscan KdELECT (Assay A); read-out: Biochemical TYK2_DiscoverX_JH2_BND_Kd. The method in brief:
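The assay measures displacement of DNA- or phage-tagged TYK2 pseudokinase domain from an affinity resin; compound binding lowers the amount captured, read by qPCR. Incubation lasts 1 h at room temperature.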

Test [2] deals with JAK1/TYK2 pSTAT5 (Tyr694/699) in THP-1 cell line. Briefly: IFNa-stimulated JAK1/TYK2 pSTAT5 (Tyr694/699) inhibition cellular assay, AlphaLISA. It is filed as cell-based. Particulars: Homo sapiens; THP-1 cells, IFNa-stimulated, AlphaLISA (Assay B); read-out: Cellular_THP1_IFNa-pSTATS_TYK2. The method in brief:
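An eight-point 6-fold titration of compound (0.04–10000 nM final) is given to THP-1 cells for 1 h before 30 min of IFNa exposure. Phospho-STAT5 is read by AlphaLISA at 615 nm. IC50 values are derived by logistic regression with bottom set to 0 and Hill slope set to −1.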
On the technique in general: In Alpha technology, singlet oxygen from a donor bead excites a nearby acceptor bead.

T1 sequence (P29597 589-875 limits assumed): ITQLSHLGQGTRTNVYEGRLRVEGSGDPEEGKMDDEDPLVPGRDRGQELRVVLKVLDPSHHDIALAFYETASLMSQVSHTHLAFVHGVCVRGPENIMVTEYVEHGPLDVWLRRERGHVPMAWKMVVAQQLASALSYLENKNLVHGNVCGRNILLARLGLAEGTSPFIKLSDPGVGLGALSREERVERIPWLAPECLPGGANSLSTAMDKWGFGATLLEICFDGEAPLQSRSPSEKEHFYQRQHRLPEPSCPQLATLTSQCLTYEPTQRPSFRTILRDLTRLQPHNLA

Take `CNc1ncc(C#Cc2cn(C)c(C(F)(F)F)n2)c2cc(NC(=O)C3CC3)ncc12` [Example 897, N-(5-((1-methyl-2-(trifluoromethyl)-1H-imidazol-4-yl)ethynyl)-8-(methylamino)-2,7-naphthyridin-3-yl)cyclopropanecarboxamide]: the Kd in test [1] was at most 100 nM. Moreover, the IC50 in test [2] is at most 500 nM.
The like results for `[2H]C([2H])([2H])n1cc(C#Cc2cnc(NC)c3cnc(NC(=O)C4CC4)cc23)nc1C` [Example 898, N-(5-((2-methyl-1-(methyl-d3)-1H-imidazol-4-yl)ethynyl)-8-(methylamino)-2,7-naphthyridin-3-yl)cyclopropanecarboxamide] were, in that order, at most 100 nM and at most 500 nM.
Taken in the same sequence, the figures for `CNc1ncc(C#Cc2cn3c(n2)CCCC3)c2cc(NC(=O)C3CC3)ncc12` [Example 899, N-(8-(methylamino)-5-((5,6,7,8-tetrahydroimidazo[1,2-a]pyridin-2-yl)ethynyl)-2,7-naphthyridin-3-yl)cyclopropanecarboxamide] were at most 100 nM and at most 500 nM.
For `[2H]C([2H])([2H])n1ccc(C#Cc2cnc(NC)c3cnc(NC(=O)C4CC4)cc23)n1` [Example 900, N-(5-((1-(methyl-d3)-1H-pyrazol-3-yl)ethynyl)-8-(methylamino)-2,7-naphthyridin-3-yl)cyclopropanecarboxamide], the Kd in test [1] is at most 100 nM. The IC50 in test [2] is at most 500 nM.
On to `[2H]C([2H])([2H])n1nccc1C#Cc1cnc(NC)c2cnc(NC(=O)C3CC3)cc12` [Example 901, N-(5-((1-(methyl-d3)-1H-pyrazol-5-yl)ethynyl)-8-(methylamino)-2,7-naphthyridin-3-yl)cyclopropanecarboxamide], for which the Kd in test [1] is at most 100 nM. For the same molecule, in test [2], the IC50 is at most 500 nM.
Taken in the same sequence, the figures for `[2H]C([2H])([2H])n1c(C#Cc2cnc(NC)c3cnc(NC(=O)C4CC4)cc23)cnc1C` [Example 902, N-(5-((2-methyl-1-(methyl-d3)-1H-imidazol-5-yl)ethynyl)-8-(methylamino)-2,7-naphthyridin-3-yl)cyclopropanecarboxamide] were at most 100 nM and at most 500 nM.
The like results for `[2H]C([2H])([2H])Nc1ncc(C#Cc2cn(C)c(C)n2)c2cc(NC(=O)[C@H]3C[C@H]3C)ncc12` [Example 903, (1S,2R)-N-(5-((1,2-dimethyl-1H-imidazol-4-yl)ethynyl)-8-((methyl-d3)amino)-2,7-naphthyridin-3-yl)-2-methylcyclopropane-1-carboxamide] were, in that order, at most 100 nM and at most 500 nM.
Taken in the same sequence, the figures for `CNc1ncc(C#Cc2ccc(OC)c(C)n2)c2cc(NC(=O)C3CC3)ncc12` [Example 904, N-(5-((5-methoxy-6-methylpyridin-2-yl)ethynyl)-8-(methylamino)-2,7-naphthyridin-3-yl)cyclopropanecarboxamide] were at most 100 nM and at most 500 nM.
Regarding `CNc1ncc(-c2nc3ccc(N4CCOCC4)cc3o2)c2cc(NC(=O)C3CC3)nnc12` [Example 913, N-(8-(methylamino)-5-(6-morpholinobenzo[d]oxazol-2-yl)pyrido[3,4-c]pyridazin-3-yl)cyclopropanecarboxamide], the Kd in test [1] was at most 100 nM. The IC50 in test [2] was at most 500 nM.
Take `CNc1ncc(-c2nc3cc(N4CCOCC4)ccc3o2)c2cc(NC(=O)C3CC3)nnc12` [Example 914, N-(8-(methylamino)-5-(5-morpholinobenzo[d]oxazol-2-yl)pyrido[3,4-c]pyridazin-3-yl)cyclopropancarboxamide]: the Kd in test [1] is at most 100 nM. The IC50 in test [2] was at most 500 nM.
With `CNc1ncc(C#Cc2ccc(OC3CN(C(C)=O)C3)cc2)c2cc(NC(=O)C3(F)CC3)nnc12` [Example 915, N-(5-((4-((1-acetylazetidin-3-yl)oxy)phenyl)ethynyl)-8-(methylamino)pyrido[3,4-c]pyridazin-3-yl)-1-fluorocyclopropane-1-carboxamide], in test [1], the Kd was at most 100 nM. Further, the IC50 in test [2] was above 500 nM.
With `CNc1ncc(-c2nc3cc(N4CCC(F)CC4)ccc3o2)c2cc(NC(=O)C3CC3)ncc12` [Example 916, N-[5-[5-(4-fluoro-1-piperidyl)-1,3-benzoxazol-2-yl]-8-(methylamino)-2,7-naphthyridin-3-yl]cyclopropanecarboxamide], in test [1], the Kd was at most 100 nM. Further, the IC50 in test [2] was at most 500 nM.
The like results for `CNc1ncc(-c2nc3cc(N4CCCC4)ccc3o2)c2cc(NC(=O)C3CC3)ncc12` [Example 917, N-[8-(methylamino)-5-(5-pyrrolidin-1-yl-1,3-benzoxazol-2-yl)-2,7-naphthyridin-3-yl]cyclopropanecarboxamide] were, in that order, at most 100 nM and at most 500 nM.
`CNc1ncc(-c2nc3cc(N4CCOC(COC)C4)ccc3o2)c2cc(NC(=O)C3CC3)ncc12` (stereo not shown) [Example 918, N-(5-(5-(2-(methoxymethyl)morpholino)benzo[d]oxazol-2-yl)-8-(methylamino)-2,7-naphthyridin-3-yl)cyclopropanecarboxamide]: the Kd in test [1] is at most 100 nM. In addition, in test [2], the IC50 is at most 500 nM.
Consider `CNc1ncc(-c2nc3cc(N4CCOC(C(F)(F)F)C4)ccc3o2)c2cc(NC(=O)C3CC3)ncc12` (stereo not shown) [Example 921, N-(8-(methylamino)-5-(5-(2-(trifluoromethyl)morpholino)benzo[d]oxazol-2-yl)-2,7-naphthyridin-3-yl)cyclopropanecarboxamide], for which the Kd in test [1] is at most 100 nM. The IC50 in test [2] was at most 500 nM.
With `CNc1ncc(-c2nc3cc(N4CCOC(C(C)(C)O)C4)ccc3o2)c2cc(NC(=O)C3CC3)ncc12` (stereo not shown) [Example 924, N-(5-(5-(2-(2-hydroxypropan-2-yl)morpholino)benzo[d]oxazol-2-yl)-8-(methylamino)-2,7-naphthyridin-3-yl)cyclopropanecarboxamide], the Kd in test [1] is at most 100 nM. Moreover, in test [2], the IC50 is at most 500 nM.
The like results for `CNc1ncc(-c2nc3cc(N4CC(C)(O)C4)ccc3o2)c2cc(NC(=O)C3CC3)ncc12` [Example 927, N-(5-(5-(3-hydroxy-3-methylazetidin-1-yl)benzo[d]oxazol-2-yl)-8-(methylamino)-2,7-naphthyridin-3-yl)cyclopropanecarboxamide] were, in that order, at most 100 nM and at most 500 nM.
The like results for `CNc1ncc(-c2nc3cnc(C)cc3o2)c2cc(NC(=O)C3CC3)ncc12` [Example 928, N-(8-(methylamino)-5-(6-methyloxazolo[4,5-c]pyridin-2-yl)-2,7-naphthyridin-3-yl)cyclopropanecarboxamide] were, in that order, at most 100 nM and at most 500 nM.
`CNc1ncc(-c2nc3cc(N4CCOCC4=O)ccc3o2)c2cc(NC(=O)C3CC3)ncc12` [Example 929, N-(8-(methylamino)-5-(5-(3-oxomorpholino)benzo[d]oxazol-2-yl)-2,7-naphthyridin-3-yl)cyclopropanecarboxamide]: in test [1], the Kd is at most 100 nM. In addition, the IC50 in test [2] is at most 500 nM.
Taken in the same sequence, the figures for `CNc1ncc(-c2nc3cc(OC)ccc3s2)c2cc(NC(=O)C3CC3)ncc12` [Example 930, N-(5-(5-methoxybenzo[d]thiazol-2-yl)-8-(methylamino)-2,7-naphthyridin-3-yl)cyclopropanecarboxamide] were at most 100 nM and at most 500 nM.
Taken in the same sequence, the figures for `C=C(C)c1ccc2oc(-c3cnc(NC)c4cnc(NC(=O)C5CC5)cc34)nc2c1` [Example 931, N-(8-(methylamino)-5-(5-(prop-1-en-2-yl)benzo[d]oxazol-2-yl)-2,7-naphthyridin-3-yl)cyclopropanecarboxamide] were at most 100 nM and at most 500 nM.
As to `CNc1ncc(-c2nc3cc(N4CC(C)(F)C4)ccc3o2)c2cc(NC(=O)C3CC3)ncc12` [Example 932, N-(5-(5-(3-fluoro-3-methylazetidin-1-yl)benzo[d]oxazol-2-yl)-8-(methylamino)-2,7-naphthyridin-3-yl)cyclopropanecarboxamide], the Kd in test [1] is at most 100 nM. In addition, in test [2], the IC50 was at most 500 nM.
The like results for `CNc1ncc(-c2nc3ccc(OC)cc3s2)c2cc(NC(=O)C3CC3)ncc12` [Example 933, N-(5-(6-methoxybenzo[d]thiazol-2-yl)-8-(methylamino)-2,7-naphthyridin-3-yl)cyclopropanecarboxamide] were, in that order, at most 100 nM and at most 500 nM.
The like results for `CNc1ncc(-c2nc3cc(N4CC5(CCOCC5)C4)ccc3o2)c2cc(NC(=O)C3CC3)ncc12` [Example 934, N-(5-(5-(7-oxa-2-azaspiro[3.5]nonan-2-yl)benzo[d]oxazol-2-yl)-8-(methylamino)-2,7-napththyridin-3-yl)cyclopropanecarboxamide] were, in that order, at most 100 nM and at most 500 nM.
The like results for `CNc1ncc(-c2nc3cc(OC)cc(F)c3o2)c2cc(NC(=O)C3CC3)ncc12` [Example 937, N-(5-(7-fluoro-5-methoxybenzo[d]oxazol-2-yl)-8-(methylamino)-2,7-naphthyridin-3-yl)cyclopropanecarboxamide] were, in that order, at most 100 nM and at most 500 nM.
`CNc1ncc(-c2nc3cc(N4CCCC(F)(F)C4)ccc3o2)c2cc(NC(=O)C3CC3)ncc12` [Example 938, N-[5-[5-(3,3-difluoro-1-piperidyl)-1,3-benzoxazol-2-yl]-8-(methylamino)-2,7-naphthyridin-3-yl]cyclopropanecarboxamide]: the Kd in test [1] is at most 100 nM. Moreover, the IC50 in test [2] is at most 500 nM.
